Laboratory results: patent publication US20250100969A1, “COMPOUND, RUBBER BLEND CONTAINING THE COMPOUND, VEHICLE TIRE COMPRISING THE RUBBER BLEND IN AT LEAST ONE COMPONENT, PROCESS FOR PRODUCING THE COMPOUND, AND USE OF THE COMPOUND AS AN AGE RESISTOR AND/OR ANTIOXIDANT” (Continental Reifen Deutschland GmbH, priority 2021, published 2025)

Assay: solubility in rubber mixtures
Assay type: physicochemical
Conditions: in particular for vehicle tires and other technical rubber articles

- solubility in rubber mixtures: very good
SMILES: CC(C)CC(C)Nc1ccc2[nH]c3ccccc3c2c1 (stereo not shown) [compound according to the invention, N-(1,3-dimethylbutyl)-9H-carbazol-3-amine]
